ChEMBL document CHEMBL2146451, “Antidiabetic activity of some pentacyclic acid triterpenoids, role of PTP-1B: in vitro, in silico, and in vivo approaches” (Eur J Med Chem, 2011)

Tests used:
[1] = biological target: Receptor-type tyrosine-protein phosphatase F (Homo sapiens, UniProt P10586); assay: Inhibition of human recombinant LAR expressed in Escherichia coli TB1 using p-nitrophenyl phosphate as substrate after 1 hr
[2] = biological target: T1, Tyrosine-protein phosphatase non-receptor type 1 (Homo sapiens, UniProt P18031)
T1 sequence (P18031 whole entry): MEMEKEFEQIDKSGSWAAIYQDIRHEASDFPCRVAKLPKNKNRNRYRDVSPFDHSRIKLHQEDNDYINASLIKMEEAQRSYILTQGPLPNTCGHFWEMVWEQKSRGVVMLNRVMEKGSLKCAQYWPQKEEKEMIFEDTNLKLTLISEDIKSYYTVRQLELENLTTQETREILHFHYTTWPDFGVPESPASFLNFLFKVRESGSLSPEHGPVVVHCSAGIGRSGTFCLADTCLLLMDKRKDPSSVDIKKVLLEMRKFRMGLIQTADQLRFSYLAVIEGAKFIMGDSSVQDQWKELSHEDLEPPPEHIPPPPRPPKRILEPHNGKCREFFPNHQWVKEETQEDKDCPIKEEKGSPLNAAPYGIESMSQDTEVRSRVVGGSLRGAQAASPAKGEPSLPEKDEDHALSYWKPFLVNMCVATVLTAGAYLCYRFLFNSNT
Description: Inhibition of human recombinant PTP-1B expressed in Escherichia coli TB1 using p-nitrophenyl phosphate as substrate after 1 hr

[3] = biological target: T1, Tyrosine-protein phosphatase non-receptor type 1; assay: Mixed type inhibition of human recombinant PTP-1B expressed in Escherichia coli TB1 using p-nitrophenyl phosphate as substrate
[4] = tested on: Rattus norvegicus; assay: Antidiabetic activity in STZ-nicotinamide diabetic Wistar rat T2DM model assessed as decrease in blood glucose level at 50 mg/kg, po after 7 hrs by enzymatic glucose oxidase method relative to control; assay type: functional; parameters: scale not given: the % may be the effect or the level left
[5] = tested on: Rattus norvegicus; assay: Antidiabetic activity in STZ-nicotinamide diabetic Wistar rat T2DM model assessed as decrease in blood glucose level at 50 mg/kg, po after 5 hrs by enzymatic glucose oxidase method relative to control; assay type: functional; parameters: scale not given: the % may be the effect or the level left
[6] = Inhibition of yeast LMW-PTP1 expressed in Escherichia coli TB1 using p-nitrophenyl phosphate as substrate after 1 hr; parameters: species or system Saccharomyces cerevisiae
[7] = biological target: T2, Low molecular weight phosphotyrosine protein phosphatase (Homo sapiens, UniProt P24666); assay: Inhibition of human recombinant LMW-PTP1 expressed in Escherichia coli TB1 using p-nitrophenyl phosphate as substrate after 1 hr
T2 sequence (P24666 whole entry): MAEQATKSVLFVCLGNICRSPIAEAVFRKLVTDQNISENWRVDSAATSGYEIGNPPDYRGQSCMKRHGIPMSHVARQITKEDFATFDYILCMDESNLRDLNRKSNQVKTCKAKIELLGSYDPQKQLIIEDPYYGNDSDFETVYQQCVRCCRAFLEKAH

[8] = tested on: Rattus norvegicus; assay: Antidiabetic activity in STZ-nicotinamide diabetic Wistar rat T2DM model assessed as decrease in blood glucose level at 50 mg/kg, po after 3 hrs by enzymatic glucose oxidase method relative to control; assay type: functional; parameters: scale not given: the % may be the effect or the level left
[9] = tested on: Rattus norvegicus; assay: Antidiabetic activity in STZ-nicotinamide diabetic Wistar rat T2DM model assessed as decrease in blood glucose level at 50 mg/kg, po after 1 hr by enzymatic glucose oxidase method relative to control; assay type: functional; parameters: scale not given: the % may be the effect or the level left
[10] = biological target: T2, Low molecular weight phosphotyrosine protein phosphatase; assay: Inhibition of human recombinant LMW-PTP2 expressed in Escherichia coli TB1 using p-nitrophenyl phosphate as substrate after 1 hr
[11] = tested on: Rattus norvegicus; assay: Antidiabetic activity in STZ-nicotinamide diabetic Wistar rat T2DM model assessed as decrease in blood glucose level at 5 mg/kg, po after 1 hr by enzymatic glucose oxidase method relative to control; assay type: functional; parameters: scale not given: the % may be the effect or the level left
[12] = tested on: Rattus norvegicus; assay: Antidiabetic activity in STZ-nicotinamide diabetic Wistar rat T2DM model assessed as decrease in blood glucose level at 5 mg/kg, po after 5 hrs by enzymatic glucose oxidase method relative to control; assay type: functional; parameters: scale not given: the % may be the effect or the level left
[13] = tested on: Rattus norvegicus; assay: Antidiabetic activity in STZ-nicotinamide diabetic Wistar rat T2DM model assessed as decrease in blood glucose level at 5 mg/kg, po after 7 hrs by enzymatic glucose oxidase method relative to control; assay type: functional; parameters: scale not given: the % may be the effect or the level left
[14] = tested on: Rattus norvegicus; assay: Antidiabetic activity in STZ-nicotinamide diabetic Wistar rat T2DM model assessed as decrease in blood glucose level at 5 mg/kg, po after 3 hrs by enzymatic glucose oxidase method relative to control; assay type: functional; parameters: scale not given: the % may be the effect or the level left
[15] = species on record: Mus musculus; assay: Antidiabetic activity in normal Swiss mouse assessed as reduction of blood glucose level by glucose tolerance test relative to control; assay type: functional; parameters: scale not given: the % may be the effect or the level left

Receptor-type tyrosine-protein phosphatase F, sequence (P10586 whole entry): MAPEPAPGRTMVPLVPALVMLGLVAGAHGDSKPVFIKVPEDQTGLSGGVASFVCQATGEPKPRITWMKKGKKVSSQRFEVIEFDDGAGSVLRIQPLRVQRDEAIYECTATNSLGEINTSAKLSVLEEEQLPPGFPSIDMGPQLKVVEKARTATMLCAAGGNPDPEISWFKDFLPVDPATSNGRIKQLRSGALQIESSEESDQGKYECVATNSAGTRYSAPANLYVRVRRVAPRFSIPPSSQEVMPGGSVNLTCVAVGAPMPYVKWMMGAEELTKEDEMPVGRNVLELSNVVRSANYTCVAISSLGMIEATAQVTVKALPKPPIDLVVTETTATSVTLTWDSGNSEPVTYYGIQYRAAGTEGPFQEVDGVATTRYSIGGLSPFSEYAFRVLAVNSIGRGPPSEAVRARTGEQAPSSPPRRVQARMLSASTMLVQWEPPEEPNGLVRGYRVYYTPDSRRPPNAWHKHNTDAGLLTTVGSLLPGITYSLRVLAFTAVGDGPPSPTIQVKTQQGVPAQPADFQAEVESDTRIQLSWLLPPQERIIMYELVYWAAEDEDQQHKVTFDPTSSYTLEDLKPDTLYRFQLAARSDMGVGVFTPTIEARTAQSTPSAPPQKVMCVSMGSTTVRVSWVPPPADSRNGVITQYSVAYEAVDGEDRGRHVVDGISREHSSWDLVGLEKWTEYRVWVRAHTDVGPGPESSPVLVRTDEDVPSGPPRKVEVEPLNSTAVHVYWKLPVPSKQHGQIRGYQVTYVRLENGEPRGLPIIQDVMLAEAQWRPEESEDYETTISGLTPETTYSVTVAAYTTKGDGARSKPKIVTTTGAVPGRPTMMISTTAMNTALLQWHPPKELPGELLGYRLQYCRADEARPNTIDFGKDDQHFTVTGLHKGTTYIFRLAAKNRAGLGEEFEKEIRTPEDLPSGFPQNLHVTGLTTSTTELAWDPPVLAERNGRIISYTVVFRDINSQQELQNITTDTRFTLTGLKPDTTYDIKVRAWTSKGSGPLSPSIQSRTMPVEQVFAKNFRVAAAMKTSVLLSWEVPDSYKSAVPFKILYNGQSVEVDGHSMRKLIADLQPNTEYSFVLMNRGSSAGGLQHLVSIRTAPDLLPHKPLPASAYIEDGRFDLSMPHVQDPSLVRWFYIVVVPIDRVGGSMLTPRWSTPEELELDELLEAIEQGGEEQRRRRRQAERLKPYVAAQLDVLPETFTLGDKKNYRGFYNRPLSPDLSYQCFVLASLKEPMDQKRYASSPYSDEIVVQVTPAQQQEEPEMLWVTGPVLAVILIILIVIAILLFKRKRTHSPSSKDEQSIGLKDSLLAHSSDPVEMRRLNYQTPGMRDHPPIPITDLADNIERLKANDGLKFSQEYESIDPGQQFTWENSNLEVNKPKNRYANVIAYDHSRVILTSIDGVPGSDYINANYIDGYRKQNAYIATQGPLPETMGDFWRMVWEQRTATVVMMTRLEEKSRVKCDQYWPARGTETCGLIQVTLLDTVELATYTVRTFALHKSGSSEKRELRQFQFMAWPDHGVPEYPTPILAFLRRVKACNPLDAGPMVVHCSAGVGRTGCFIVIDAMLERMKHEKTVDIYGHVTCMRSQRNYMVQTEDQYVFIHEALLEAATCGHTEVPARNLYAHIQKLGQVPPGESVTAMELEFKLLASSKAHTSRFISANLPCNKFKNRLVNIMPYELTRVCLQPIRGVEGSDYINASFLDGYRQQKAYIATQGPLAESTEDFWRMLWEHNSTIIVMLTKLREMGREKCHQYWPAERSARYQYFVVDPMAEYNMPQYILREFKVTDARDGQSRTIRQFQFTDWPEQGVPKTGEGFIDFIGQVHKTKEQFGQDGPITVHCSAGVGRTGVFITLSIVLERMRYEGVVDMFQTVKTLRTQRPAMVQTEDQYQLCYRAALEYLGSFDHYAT

IC50 [1] [µM] | IC50 [2] [µM] | Ki [3] [µM] | IC50 [6] [µM] | IC50 [7] [µM] | IC50 [10] [µM] | Compound | Activity [4] [%] | Activity [5] [%] | Activity [8] [%] | Activity [9] [%] | Activity [11] [%] | Activity [12] [%] | Activity [13] [%] | Activity [14] [%] | Activity [15] [%]
45.6 | 13.2 | 8 | 51.2 | 20.6 | 27.4 | CC1(C)C=C2[C@H]3CC[C@@H]4[C@@]5(C)CCC(=O)C(C)(C)[C@@H]5CC[C@@]4(C)[C@]3(C)CC[C@@]2(C(=O)O)CC1 [MORONIC ACID] | 29.2 | 15.3 | 26.3 | 17.3 | – | – | – | – | –
3.8 | – | – | 20 | 7.2 | 11.1 | C[C@H]1[C@H](C)CC[C@]2(C(=O)O)CC[C@]3(C)C(=CC[C@@H]4[C@@]5(C)CC[C@H](O)C(C)(C)[C@@H]5CC[C@]43C)[C@H]12 [URSOLIC ACID] | 38 | 25.7 | 24.4 | 13.5 | – | – | – | – | –
– | – | – | – | – | – | COc1ccc(Cl)cc1C(=O)NCCc1ccc(S(=O)(=O)NC(=O)NC2CCCCC2)cc1 [GLYBURIDE] | – | – | – | – | 20.4 | 37.5 | 43.6 | 36.3 | –
11.8 | – | – | 44.8 | 21.2 | 22.9 | CC1(C)CC[C@]2(C(=O)O)CC[C@]3(C)C(=CC[C@@H]4[C@@]5(C)CC[C@H](O)C(C)(C)[C@@H]5CC[C@]43C)[C@@H]2C1 [OLEANOLIC_ACID] | 21.9 | 23.2 | 14.1 | 26.9 | – | – | – | – | 22

Compound | IC50 [1] [µM] | IC50 [2] [µM] | Ki [3] [µM] | IC50 [6] [µM] | IC50 [7] [µM] | IC50 [10] [µM] | Activity [4] [%] | Activity [5] [%] | Activity [8] [%] | Activity [9] [%] | Activity [11] [%] | Activity [12] [%] | Activity [13] [%] | Activity [14] [%] | Activity [15] [%]
CC1(C)C=C2[C@H]3CC[C@@H]4[C@@]5(C)CC[C@H](O)C(C)(C)[C@@H]5CC[C@@]4(C)[C@]3(C)CC[C@@]2(C(=O)O)CC1 [MOROLIC ACID] | 35.9 | – | – | – | 13.4 | 30.6 | 39.2 | 8.77 | 15.2 | 1.54 | – | – | – | – | –
